Test results reported in patent US8053583B2, “Anti-cancer compound and manufacturing method thereof” (National Defense Medical Center, priority 2008, dated 2011).

Legend:
[1] = system: GBM 8401 (human brain glioblastoma) cells; experiment: MTT colorimetric assay, GBM 8401 cells; conditions: 46 hours with drug, then 2 hours MTT, ratio to control group without drug; for Cell viability (%) GBM 8401: conc. 10 μM; for viability at 10 µM: Homo sapiens, read-out: Cell viability (%) GBM 8401, conc. 10 μM
[2] = system: GBM 8901 (human brain glioblastoma) cells; experiment: MTT colorimetric assay, GBM 8901 cells; conditions: 46 hours with drug, then 2 hours MTT, ratio to control group without drug; for viability at 10 µM: Homo sapiens, read-out: Cell viability (%) GBM 8901, conc. 10 μM
[3] = system: SVG p12 (human brain astroglia) cells; experiment: MTT colorimetric assay, normal SVG p12 cells; conditions: conc. 10 μM, 46 hours with drug, then 2 hours MTT, ratio to control group without drug
[4] = MTT colorimetric assay, normal SVG p12 cells; conditions: human, SVG p12 cells (normal human brain astroglia), Cell viability (%) SVG p12, conc. 10 μM, 46 hours with drug, then 2 hours MTT, ratio to control group without drug

Row | Structure (SMILES) | melting point [°C] | Cell viability (%) GBM 8401 [1] [%] | Cell viability (%) GBM 8901 ([2]; conc. 10 μM) [%] | Cell viability (%) SVG p12 [3] [%] | viability at 10 µM [1] [%] | viability at 10 µM [2] [%] | viability at 46 h, 10 μM [4] [%]
1 | COC(=O)[C@H](NCC(=O)Nc1cccc2c1C(=O)c1c(NC(=O)CN[C@@H](C(=O)OC)C(C)C)cccc1C2=O)C(C)C [Compound 3e, (D)-1,8-Bis[2-(valinemethyl ester)acetamido]anthraquinone] | – | 153 ± 32 | 88 ± 10 | 138 ± 10 | – | – | –
2 | COC(=O)CN(C)CC(=O)Nc1cccc2c1C(=O)c1c(NC(=O)CN(C)CC(=O)OC)cccc1C2=O [Compound 3f, 1,8-Bis[2-(sacrocinemethyl ester)acetamido]anthraquinone] | 129 to 130 | – | – | – | 130 ± 20 | 107 ± 5 | 172 ± 2
3 | COC(=O)[C@H](CC(C)C)NCC(=O)Nc1cccc2c1C(=O)c1c(NC(=O)CN[C@H](CC(C)C)C(=O)OC)cccc1C2=O [Compound 3g, 1,8-Bis[2-(leucinemethyl ester)acetamido]anthraquinone] | 238 to 239 | – | – | – | 111 ± 8 | 89 ± 4 | 153 ± 11
4 | COC(=O)[C@H](C)NCC(=O)Nc1cccc2c1C(=O)c1c(NC(=O)CN[C@H](C)C(=O)OC)cccc1C2=O [Compound 3h, (L)-1,8-Bis[2-(alalinemethyl ester)acetamido]anthraquinone] | – | 158 ± 3 | – | 128 ± 34 | – | 100 ± 24 | –
5 | CCN(CC)CC(=O)Nc1cccc2c1C(=O)c1c(NC(=O)CN(CC)CC)cccc1C2=O [Compound 3l, 1,8-Bis[2-(diethylamino)acetamido]anthraquinone] | 228 to 229 | – | – | – | 91 ± 17 | 94 ± 26 | 123 ± 13
6 | O=C(CNCc1cccc(C(F)(F)F)c1)Nc1cccc2c1C(=O)c1c(NC(=O)CNCc3cccc(C(F)(F)F)c3)cccc1C2=O [Compound 3q, 1,8-Bis [2-(3-(trifluoromethyl)benzylamino)acetamido]anthraquinone] | 190 to 191 | – | – | – | 120 ± 26 | 83 ± 10 | 135 ± 20
7 | CCN(C)CC(=O)Nc1cccc2c1C(=O)c1c(NC(=O)CN(C)CC)cccc1C2=O [Compound 3r, 1,8-Bis[2-(ethylmethylamino)acetamido]anthraquinone] | 186 to 187 | – | – | – | 90 ± 2 | 98 ± 12 | 125 ± 7
8 | CCCN(C)CC(=O)Nc1cccc2c1C(=O)c1c(NC(=O)CN(C)CCC)cccc1C2=O [Compound 3s] | 159 to 160 | – | – | – | 103 ± 9 | 107 ± 9 | 132 ± 3

Second part, led by results:

Row | melting point [°C] | Structure (SMILES) | Cell viability (%) GBM 8401 [1] [%] | Cell viability (%) GBM 8901 ([2]; conc. 10 μM) [%] | Cell viability (%) SVG p12 [3] [%] | viability at 10 µM [1] [%] | viability at 10 µM [2] [%] | viability at 46 h, 10 μM [4] [%]
9 | 160 to 161 | CCN(CC)CCC(=O)Nc1cccc2c1C(=O)c1c(NC(=O)CCN(CC)CC)cccc1C2=O [Compound 4a, 1,8-Bis[3-(diethylamino)propionamido]anthraquinone] | – | – | – | 4 | 3 ± 2 | 3
10 | 224 to 225 | CC(C)CNCCC(=O)Nc1cccc2c1C(=O)c1c(NC(=O)CCNCC(C)C)cccc1C2=O [Compound 4b, 1,8-Bis[3-(isobutylamino)propionamido]anthraquinone] | – | – | – | 4 ± 1 | 7 ± 3 | 4
11 | 190 to 191 | O=C(CCNCc1cc(F)cc(F)c1)Nc1cccc2c1C(=O)c1c(NC(=O)CCNCc3cc(F)cc(F)c3)cccc1C2=O [Compound 4c, 1,8-Bis[3-(3,5-difluorobenzylamino)propionamido]anthraquinone] | – | – | – | 14 ± 1 | 11 ± 9 | > 80
12 | 101 to 102 | CC(C)(C)OC(=O)NCCNCCC(=O)Nc1cccc2c1C(=O)c1c(NC(=O)CCNCCNC(=O)OC(C)(C)C)cccc1C2=O [Compound 4d, 1,8-Bis[2-(N-Boc-ethanediamino)propionamido]anthraquinone] | – | – | – | 10 ± 5 | 4 | 8 ± 1
13 | 100 to 102 | CN(C)CCNCCC(=O)Nc1cccc2c1C(=O)c1c(NC(=O)CCNCCN(C)C)cccc1C2=O [Compound 4e, 1,8-Bis[2-(dimethylethanediamino)propionamido]anthraquinone] | – | – | – | 14 ± 2 | 10 ± 5 | 13 ± 3
14 | 116 to 117 | CN(C)CCC(=O)Nc1cccc2c1C(=O)c1c(NC(=O)CCN(C)C)cccc1C2=O [Compound 4f] | – | – | – | 3 | 7 ± 3 | 4 ± 3
15 | 129 to 130 | CCCN(CCC)CCC(=O)Nc1cccc2c1C(=O)c1c(NC(=O)CCN(CCC)CCC)cccc1C2=O [Compound 4g] | – | – | – | 5 ± 1 | 8 ± 2 | 4
16 | 233 to 234 | CNCCC(=O)Nc1cccc2c1C(=O)c1c(NC(=O)CCNC)cccc1C2=O [Compound 4h] | – | – | – | 9 ± 2 | 10 ± 1 | 4
17 | 105 to 106 | CC(C)NCCC(=O)Nc1cccc2c1C(=O)c1c(NC(=O)CCNC(C)C)cccc1C2=O [Compound 4i] | – | – | – | 2 ± 1 | 8 ± 2 | 5 ± 1
18 | 107 to 108 | CN(C)CCCNCCC(=O)Nc1cccc2c1C(=O)c1c(NC(=O)CCNCCCN(C)C)cccc1C2=O [Compound 4j, 1,8-Bis[2-(dimethylpropanediamino)propionamido]anthraquinone] | – | – | – | 9 ± 2 | 22 ± 9 | 33 ± 16
19 | 129 to 130 | CCN(C)CCC(=O)Nc1cccc2c1C(=O)c1c(NC(=O)CCN(C)CC)cccc1C2=O [Compound 4k] | – | – | – | 1 ± 3 | 7 ± 3 | 2
